Source: PMC8507159, “Degradation of epigallocatechin and epicatechin gallates by a novel tannase TanHcw from Herbaspirillum camelliae” (Microbial Cell Factories, 2021)

Test system: T1, TanHcw
T1 construct: C-terminal His-tag, pET23a, E. coli BL21(DE3) pLysS; 39 kDa on gel
Test: gallic acid release, rhodanine chromogen at […] nm; Lineweaver-Burk
Format: biochemical, Herbaspirillum camelliae
Settings: 0.1-2.0 mM substrate

| Structure (SMILES) | Km (pH 7.0, 40 °C) [µM] | Km (pH 6.0, 30 °C) [µM] |
| --- | --- | --- |
| O=C(O[C@@H]1Cc2c(O)cc(O)cc2O[C@@H]1c1cc(O)c(O)c(O)c1)c1cc(O)c(O)c(O)c1 [EGCG, (–)–epigallocatechin-3-gallate] | 300 ± 10 | – |
| COC(=O)c1cc(O)c(O)c(O)c1 [MG, Methyl gallate] | – | 820 ± 20 |
| O=C(O[C@@H]1Cc2c(O)cc(O)cc2O[C@@H]1c1ccc(O)c(O)c1)c1cc(O)c(O)c(O)c1 [ECG, (–)–epicatechin-3-gallate] | 330 ± 10 | – |
